The assay relates to wild strain E-Coli. Briefly: E-Coli culture turbidity over time (Experiment 4). The assay is classed as cell-based. The conditions noted are these: 25 ppm hydrogen peroxide or equivalent concentration. Here is the method:
A wild strain E-Coli culture was added to three samples. The sample A contained 25 ppm hydrogen peroxide in water. The sample B contained a solution of Formulation A diluted to equivalent 25 ppm hydrogen peroxide fraction. The sample C contained a solution having a green tea extract of the same concentration of Formulation A but without hydrogen peroxide.

The results in this text go back to US8586110B2, “Therapeutic composition produced using Camellia sinensis leaves and hydrogen peroxide” (LiveLeaf, Inc., priority 2007, dated 2013).

For the molecule `OO` [hydrogen peroxide], the “antimicrobial effect on bacteria population (visual turbidity)” value is reported as “initially reduced but began to exhibit increased visual turbidity after 16 hours”.
